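Five concentrations, 48 hours, 96-well plates. The concentration for 50% growth inhibition is given as GI50.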 Activity calls are given as the source filed them. Cut-off read from the data, not from the text of the source: active = GI50 up to about 1.1 µM and inactive = higher.
What was measured:
Experiment in all cases: NCI tumour cell line growth inhibition, 48 h
786-0 = test system: 786-0
BT-549 = test system: BT-549
DU-145 = test system: DU-145
EKVX = test system: EKVX
HCC 2998 = test system: HCC 2998
HOP-62 = test system: HOP-62
HT-29 = test system: HT-29
M14 = test system: M14
MDA-N = test system: MDA-N
NCI-H226 = test system: NCI-H226
NCI-H23 = test system: NCI-H23
NCI-H460 = test system: NCI-H460
NCI-H522 = test system: NCI-H522
OVCAR-4 = test system: OVCAR-4
OVCAR-5 = test system: OVCAR-5
OVCAR-8 = test system: OVCAR-8
SK-MEL-2 = test system: SK-MEL-2
SNB-19 = test system: SNB-19
T47D = test system: T47D

Cc1cc(-c2ccccc2)nc2oc(=O)n(C)c12
GI50 (786-0): 37.8 µM (inactive) | GI50 (BT-549): > 100 µM (inactive) | GI50 (DU-145): > 100 µM (inactive) | GI50 (EKVX): 42.8 µM (inactive) | GI50 (HCC 2998): > 100 µM (inactive) | GI50 (HOP-62): > 100 µM (inactive) | GI50 (HT-29): > 100 µM (inactive) | GI50 (M14): > 100 µM (inactive) | GI50 (MDA-N): > 100 µM (inactive) | GI50 (NCI-H226): > 100 µM (inactive) | GI50 (NCI-H23): 83.9 µM (inactive) | GI50 (NCI-H460): > 100 µM (inactive) | GI50 (NCI-H522): > 100 µM (inactive) | GI50 (OVCAR-4): > 100 µM (inactive) | GI50 (OVCAR-5): > 100 µM (inactive) | GI50 (OVCAR-8): 90.4 µM (inactive) | GI50 (SK-MEL-2): 79.3 µM (inactive) | GI50 (SNB-19): > 100 µM (inactive) | GI50 (T47D): 94.6 µM (inactive)

O=c1cc(N2CCCC2)[nH]c(=O)n1-c1ccc(F)cc1
GI50 (786-0): > 100 µM (inactive) | GI50 (BT-549): > 100 µM (inactive) | GI50 (DU-145): > 100 µM (inactive) | GI50 (EKVX): > 100 µM (inactive) | GI50 (HCC 2998): > 100 µM (inactive) | GI50 (HOP-62): > 100 µM (inactive) | GI50 (HT-29): > 100 µM (inactive) | GI50 (M14): > 100 µM (inactive) | GI50 (MDA-N): > 100 µM (inactive) | GI50 (NCI-H226): 20.3 µM (inactive) | GI50 (NCI-H23): > 100 µM (inactive) | GI50 (NCI-H460): > 100 µM (inactive) | GI50 (NCI-H522): > 100 µM (inactive) | GI50 (OVCAR-4): > 100 µM (inactive) | GI50 (OVCAR-5): > 100 µM (inactive) | GI50 (OVCAR-8): > 100 µM (inactive) | GI50 (SK-MEL-2): > 100 µM (inactive) | GI50 (SNB-19): > 100 µM (inactive) | GI50 (T47D): > 100 µM (inactive)

NC(CSS(=O)(=O)c1ccccc1)C(=O)O (centres undefined)
GI50 (786-0): > 10 µM (inactive) | GI50 (BT-549): > 10 µM (inactive) | GI50 (DU-145): > 10 µM (inactive) | GI50 (EKVX): > 10 µM (inactive) | GI50 (HCC 2998): > 10 µM (inactive) | GI50 (HOP-62): > 10 µM (inactive) | GI50 (HT-29): > 10 µM (inactive) | GI50 (M14): > 10 µM (inactive) | GI50 (MDA-N): > 10 µM (inactive) | GI50 (NCI-H226): > 10 µM (inactive) | GI50 (NCI-H23): > 10 µM (inactive) | GI50 (NCI-H460): > 10 µM (inactive) | GI50 (NCI-H522): > 10 µM (inactive) | GI50 (OVCAR-4): > 10 µM (inactive) | GI50 (OVCAR-5): > 10 µM (inactive) | GI50 (OVCAR-8): > 10 µM (inactive) | GI50 (SK-MEL-2): > 10 µM (inactive) | GI50 (SNB-19): > 10 µM (inactive) | GI50 (T47D): > 10 µM (inactive)

CN(CCCN(C)CCc1ccc(Cl)c(Cl)c1)CCCN1CCCC1
GI50 (786-0): 1.26 µM (inactive) | GI50 (BT-549): 6.03 µM (inactive) | GI50 (DU-145): 8.71 µM (inactive) | GI50 (EKVX): 3.35 µM (inactive) | GI50 (HCC 2998): 0.305 µM (active) | GI50 (HOP-62): 2.86 µM (inactive) | GI50 (HT-29): 0.55 µM (active) | GI50 (M14): 1.52 µM (inactive) | GI50 (MDA-N): 1.31 µM (inactive) | GI50 (NCI-H226): 2.56 µM (inactive) | GI50 (NCI-H23): 3.31 µM (inactive) | GI50 (NCI-H460): 2.27 µM (inactive) | GI50 (NCI-H522): 1.56 µM (inactive) | GI50 (OVCAR-4): 7.28 µM (inactive) | GI50 (OVCAR-5): 3.3 µM (inactive) | GI50 (OVCAR-8): 2.82 µM (inactive) | GI50 (SK-MEL-2): 1.83 µM (inactive) | GI50 (SNB-19): 3.61 µM (inactive) | GI50 (T47D): 2.34 µM (inactive)

C(=N\c1ccc(-c2nc3ccccc3s2)cc1)/c1cccs1
GI50 (786-0): 48.2 µM (inactive) | GI50 (BT-549): 56.2 µM (inactive) | GI50 (DU-145): 69.8 µM (inactive) | GI50 (EKVX): 45.2 µM (inactive) | GI50 (HCC 2998): 34 µM (inactive) | GI50 (HOP-62): 30.3 µM (inactive) | GI50 (HT-29): 52.4 µM (inactive) | GI50 (M14): 69 µM (inactive) | GI50 (MDA-N): 39.4 µM (inactive) | GI50 (NCI-H226): 54.2 µM (inactive) | GI50 (NCI-H23): 54.3 µM (inactive) | GI50 (NCI-H460): 36.1 µM (inactive) | GI50 (NCI-H522): 32.1 µM (inactive) | GI50 (OVCAR-4): 39.9 µM (inactive) | GI50 (OVCAR-5): 89.1 µM (inactive) | GI50 (OVCAR-8): 49.2 µM (inactive) | GI50 (SK-MEL-2): 38.2 µM (inactive) | GI50 (SNB-19): 88.3 µM (inactive) | GI50 (T47D): 22.8 µM (inactive)

CCOC(=O)CC1(N)CC2c3ccccc3OC(=O)C2C(=O)N1 (centres undefined)
GI50 (786-0): > 100 µM (inactive) | GI50 (BT-549): > 100 µM (inactive) | GI50 (DU-145): > 100 µM (inactive) | GI50 (EKVX): > 100 µM (inactive) | GI50 (HCC 2998): > 100 µM (inactive) | GI50 (HOP-62): > 100 µM (inactive) | GI50 (HT-29): > 100 µM (inactive) | GI50 (M14): > 100 µM (inactive) | GI50 (MDA-N): > 100 µM (inactive) | GI50 (NCI-H226): > 100 µM (inactive) | GI50 (NCI-H23): > 100 µM (inactive) | GI50 (NCI-H460): > 100 µM (inactive) | GI50 (NCI-H522): > 100 µM (inactive) | GI50 (OVCAR-4): > 100 µM (inactive) | GI50 (OVCAR-5): > 100 µM (inactive) | GI50 (OVCAR-8): > 100 µM (inactive) | GI50 (SK-MEL-2): > 100 µM (inactive) | GI50 (SNB-19): > 100 µM (inactive) | GI50 (T47D): > 100 µM (inactive)
